Series [1] is described as follows: Physical stability on storage, analysed by XRPD. In kind it is physicochemical. The note with it: 1.5 years at 4 °C under dry conditions. On the procedure: XRPD was performed using an X’Pert PANalytical PRO X-ray diffractometer (PANalytical, Almelo, The Netherlands) using Cu Kα radiation (λ = 1.54 Å), and an acceleration voltage and current of 45 kV and 40 mA, respectively. The powder samples were scanned in reflectance mode from 5° to 35° 2ϴ with a scan speed of 0.067° 2ϴ and a step size of 0.026° 2ϴ. Data were collected and analyzed using the software X’Pert Data Collector (PANalytical, Almelo, The Netherlands).
The co-amorphous binary DTX-BIC mixture as well as the pure individual amorphous drugs were stored in a desiccator under dry conditions (silica gel) at 4 °C and analysed by XRPD after 1.5 years of storage.

Series [2] in a line: Dissolution studies in FaSSIF biorelevant medium. Format: physicochemical. The settings on record: 37 °C. On the procedure:
The concentrations of DTX and BIC were determined using a reversed-phase high-performance liquid chromatography (HPLC) system (Dionex Corporation, CA, USA) equipped with an ASI-100 autosampler, Dionex Ultimate 300 UV-Visible detector and pump. Chromatographic separation was achieved using a XB-C18 Phenomenex Kinetex column of 2.6 μm (2.1 × 50 mm) (Torrance, CA, USA) at 30 °C. The mobile-phase consisted of a mixture of A) 95% water 5% acetonitrile (ACN) and 0.1% trifluoroacetic acid (TFA) and B) 95% ACN 5% water 0.1% TFA, and was used at a flow rate of 0.5 mL/min in isocratic mode (60% A 40% B). Peaks were analysed at 270 nm for BIC and 230 nm for DTX. Linear calibration curves in the range of 0.25–5 μg/mL for both BIC and DTX were obtained in acetonitrile. Elution times were 4.8 min for BIC and 6.4 min for DTX.
For the dissolution studies, powder formulations were initially suspended in PBS in order to avoid powder agglomerates. Immediately after suspension, 100 µL aliquots were added to each well of a 12-well plate containing 2.9 mL dissolution medium/well. The concentrations of the drugs in the dissolution medium were 3 times higher than their respective saturation solubilities. […] The obtained samples were centrifuged at 10,000 g for 10 min and the supernatant was then analysed by HPLC (see above). […]

Series [3] is described as follows: In vivo pharmacokinetics study in fasted rats. Further details: species or system Sprague Dawley rats. The note with it: for DTX AUC / BIC AUC: mean ± SEM. On the procedure:
Healthy female and male Sprague Dawley rats of 7 weeks age weighing 140–240 g (Charles River, Denmark), were used for the experiments. The rats were housed with free access to water and food in groups of two rats per cage under controlled environmental conditions (constant temperature and humidity with a 12 h day-night cycle). All animal experimental work was carried out under the protocol approved by the Danish Animal Experiments Inspectorate (approval no. 2014-15-0201-00031), and all the procedures used were refined to provide maximal comfort and minimal stress to the animals.
All animals were fasted for approximately 12 h prior to administration of the drug formulations and food was provided to rats approximately 6 h after drug administration, although free access to water was allowed during fasting. The nine groups studied, each consisting of 6–8 rats, were assigned randomly and included two groups receiving an intravenous bolus injection of either DTX or BIC corresponding to 1 mg/rat (4–7 mg/kg) dissolved in saline: DMSO (50:50 v/v) with 1% Tween 80, administered in the tail vein. The remaining seven groups were orally administered with DTX or BIC or a combination of these at a fixed dose of 30 mg/kg for DTX and 16 mg/kg for BIC. For DTX, four groups of animals were studied, one group administered with crystalline DTX (crystalline), one group administered with a physical mixture of crystalline DTX and BIC (physical mix), one group administered with amorphous DTX (amorphous) and one group administered with the co-amorphous mixture of DTX and BIC (co-amorphous). For BIC three groups of animals were studied, one group administered with crystalline BIC (crystalline), one groups administered with a physical mixture of crystalline DTX and BIC (physical mix) and one group administered with the co-amorphous mixture of DTX and BIC (co-amorphous). Drug powders were suspended in 0.5 mL PBS and the suspension was immediately administered to the rats using a flexible cannula. Blood samples (150–200 µL) were collected in EDTA coated tubes from puncturing of the tail vein at 0.5, 1, 2, 4, 6 and 24 h after drug administration. The rats were euthanized by cervical dislocation after collection of the final blood sample. Plasma samples were obtained by centrifugation of blood samples at 3600 g (10 min, 4 °C) and transferred into microtubes. The plasma samples were stored at −80 °C until used for further analysis.
The bioanalysis of DTX and BIC in rat plasma was carried out using HPLC coupled with mass spectrometric (MS) detection. Prior to analysis liquid-liquid extraction was performed on the plasma samples (50 μL) by adding 100 μL of ethyl acetate and subsequently vortexing the vial for protein precipitation. The vials were centrifuged and 100 μL supernatant was carefully transferred to HPLC vials with inserts and evaporated using compressed air. The dried content of the vial was reconstituted using 150 μL ACN:H2O (1:1 v/v) and measured by LC-MS/MS.
LC-MS/MS analysis was performed using a 1290 Agilent Infinity Series system (Agilent Technologies, Palo Alto, CA, USA) coupled to an AB Sciex 4500 QTrap MS (Applied Biosystems, Foster City, CA, USA). A HPLC-MS method was developed for each compound. In both cases chromatographic separation was performed using a Phenomenex Kinetex (Torrance, CA, USA) C18 (50 × 2.1 mm, 2.6 μm) column with a Phenomenex C18 SecurityGuard™ Ultra (2.1 mm, 2 µm) guard column and the mobile phases consisted of (A) MilliQ water with 0.1% formic acid and (B) ACN with 0.1% formic acid. The column and autosampler tray were set at 40 °C and 6 °C, respectively, and the flow rate was set at 0.25 mL/min. The injection volume was set at 1 μL and 5 μL for BIC and DTX, respectively. For BIC, the elution gradient started at 20% B at time 0 and increased to […] at time 3.0 min. Hereafter B was held at 99% until 4.3 min before re-equilibrating the column until 5.5 min. The retention time for BIC was 3.12 min. […]

The nature of series [4]: Saturation solubility studies in FaSSIF. In kind it is physicochemical. The note with it: crystalline drugs, FaSSIF pH 6.5, after 72 h with excess drug powder. On the procedure: DTX and BIC saturation solubility studies were conducted in FaSSIF. The biorelevant FaSSIF medium was prepared by adding 218 mg bovine bile extract, 58 mg phosphatidylcholine, 232 mg Tris maleate salt and 395 mg sodium chloride to 100 mL of ultra-purified water and stirring overnight at 37 °C. The medium pH was adjusted to 6.5 with 1 M NaOH before use. Approximately 100 mg of the drugs were mixed with 1.5 mL of the media in plastic tubes, and the suspensions were rotated at 20 rpm for 72 h. The solution was separated from undissolved drug by centrifugation, and aliquots from the saturated solution were filtered through 0.45 µm polyvinylidene difluoride (PVDF) filters. The solubility may potentially have been influenced by exposure to temperature since both, centrifugation and filtration, were conducted at room temperature.
The concentrations of DTX and BIC were determined using a reversed-phase high-performance liquid chromatography (HPLC) system (Dionex Corporation, CA, USA) equipped with an ASI-100 autosampler, Dionex Ultimate 300 UV-Visible detector and pump. Chromatographic separation was achieved using a XB-C18 Phenomenex Kinetex column of 2.6 μm (2.1 × 50 mm) (Torrance, CA, USA) at 30 °C. […] Peaks were analysed at 270 nm for BIC and 230 nm for DTX. […]

Details of series [5]: method as in Valicherla et al. [19]. The settings on record: oral drug delivery strategy for DTX (self-emulsifying drug delivery system), rats, ref Valicherla et al. [19]; cited from earlier work.
Details of series [6]: method as in Zhang et al. [20]. The settings on record: oral drug delivery strategy for DTX (cyclodextrin-based polymeric micelle), mice, ref Zhang et al. [20]; cited from earlier work.
[7] abbreviates: DTX in plasma, oral suspension, 30 mg/kg DTX, 30 mg/kg.
The mark [8] stands for this setting: oral suspension, 30 mg/kg DTX, Fa = AUCoral/AUCIV × 100, mean ± SEM, 30 mg/kg.
Setting [9] is: intravenous bolus, 1 mg/rat (4–7 mg/kg).

Molecules are shown by their SMILES. Values after ≈ are worked out from the molar mass of the structure shown. Read-outs that look alike come from different tables or passages of the source.

With `CC(O)(CS(=O)(=O)c1ccc(F)cc1)C(=O)Nc1ccc(C#N)c(C(F)(F)F)c1` (centres unmarked) [Amorphous BIC, bicalutamide], the “physical stability (solid state by XRPD) after storage” value in series [1] is on record as “recrystallized”. Besides, the “time after which the saturation solubility of BIC is reached” value in series [2] (BIC in FaSSIF) is listed as 120 min.

Regarding `CC(=O)O[C@@]12CO[C@@H]1C[C@H](O)[C@@]1(C)C(=O)[C@H](O)C3=C(C)[C@@H](OC(=O)[C@H](O)[C@@H](NC(=O)OC(C)(C)C)c4ccccc4)C[C@@](O)([C@@H](OC(=O)c4ccccc4)[C@H]21)C3(C)C` [Amorphous DTX, Docetaxel], in series [1], the “physical stability (solid state by XRPD) after storage” value was “remained amorphous”. Also, in series [3] (setting [7]), the “DTX Cmax” value was determined as 19 ng/mL, the “DTX Tmax” value is on record as 6 h and the “DTX AUC” value amounted to 518 ± 113 ng/mL × 24h. For the same compound, in series [3] (setting [8]), the “DTX Fa (absolute oral bioavailability)” value was 0.56 ± 0.12%. Also, the DTX supersaturation behaviour entry in series [2] (DTX in FaSSIF, up to 240 min) is recorded as “does not supersaturate”.

By Cmax is commonly meant the highest concentration seen after dosing. Broadly, the Tmax is the time from dosing to the highest level. The solubility is how much of the substance goes into solution per volume. A high value points to much dissolved substance. Turning to `CC(O)(CS(=O)(=O)c1ccc(F)cc1)C(=O)Nc1ccc(C#N)c(C(F)(F)F)c1` (centres unmarked) [BIC, bicalutamide], the Cmax in series [3] (both sexes, Sprague Dawley, rat, plasma, iv, 1 mg, intravenous bolus, 1 mg/rat (4–7 mg/kg), read-out: BIC Cmax) worked out at 11300 ng/mL. Also, in series [3] (both sexes, Sprague Dawley, rat, plasma, iv, 1 mg, intravenous bolus, 1 mg/rat (4–7 mg/kg), read-out: BIC Tmax), the Tmax came to 30 min. Further, the BIC AUC in series [3] (setting [9]) amounted to 317 µg/mL × 24h. In series [4], this compound registered a solubility at 72 h of 3.05 ± 0.9 µg/mL (≈ 7.09 µM).

By bioavailability is commonly meant dose-corrected exposure relative to a reference, in per cent. Turning to `CC(O)(CS(=O)(=O)c1ccc(F)cc1)C(=O)Nc1ccc(C#N)c(C(F)(F)F)c1` (centres unmarked) [Crystalline BIC, bicalutamide], the “BIC AUC” value in series [3] (BIC in plasma, oral suspension, 16 mg/kg BIC) is reported as 43.06 ± 4.79 µg/mL × 24h. Besides, the Cmax in series [3] (both sexes, Sprague Dawley, rat, plasma, po, 16 mg/kg, BIC in plasma, oral suspension, 16 mg/kg BIC, read-out: BIC Cmax) came out at 1660 ng/mL. Moreover, the Tmax in series [3] (both sexes, Sprague Dawley, rat, plasma, po, 16 mg/kg, BIC in plasma, oral suspension, 16 mg/kg BIC, read-out: BIC Tmax) is 360 min. In addition, in series [3] (both sexes, Sprague Dawley, rat, plasma, po, 16 mg/kg, BIC, oral suspension, 16 mg/kg BIC, Fa = AUCoral/AUCIV × 100, mean ± SEM, read-out: BIC Fa (absolute oral bioavailability)), the bioavailability was 14 ± 1%.

Turning to `CC(=O)O[C@@]12CO[C@@H]1C[C@H](O)[C@@]1(C)C(=O)[C@H](O)C3=C(C)[C@@H](OC(=O)[C@H](O)[C@@H](NC(=O)OC(C)(C)C)c4ccccc4)C[C@@](O)([C@@H](OC(=O)c4ccccc4)[C@H]21)C3(C)C` [Crystalline DTX, Docetaxel], the “DTX Tmax” value in series [3] (setting [7]) is listed as 4 h; in series [3] (DTX in plasma, oral suspension, 30 mg/kg DTX, listed as crystalline DTX, 30 mg/kg), “around 1 h”. In series [3] (setting [7]), the “DTX AUC” value was found to be 185 ± 29 ng/mL × 24h. Further, the “DTX Fa (absolute oral bioavailability)” value in series [3] (setting [8]) came out at 0.20 ± 0.03%. Also, the Cmax in series [3] (both sexes, Sprague Dawley, rat, plasma, po, 30 mg/kg, DTX in plasma, oral suspension, 30 mg/kg DTX, read-out: DTX Cmax) was found to be 15 ng/mL.

Take `CC(=O)O[C@@]12CO[C@@H]1C[C@H](O)[C@@]1(C)C(=O)[C@H](O)C3=C(C)[C@@H](OC(=O)[C@H](O)[C@@H](NC(=O)OC(C)(C)C)c4ccccc4)C[C@@](O)([C@@H](OC(=O)c4ccccc4)[C@H]21)C3(C)C` [DTX, Docetaxel]: the Cmax in series [5] was 125 ng/mL; in series [3] (both sexes, Sprague Dawley, rat, plasma, iv, 1 mg, intravenous bolus, 1 mg/rat (4–7 mg/kg), read-out: DTX Cmax), 7210 ng/mL; in series [6], 292 ng/mL. Further, the relative bioavailability increase is on record as 3.2 fold in series [5] and 4.6 fold in series [6]. The Tmax in series [3] (both sexes, Sprague Dawley, plasma, intravenous bolus, 1 mg/rat (4–7 mg/kg), read-out: DTX Tmax) was determined as 30 min. Further, the “DTX AUC” value in series [3] (setting [9]) is recorded as 93,196 ± 12,626 ng/mL × 24h. Besides, the solubility at 72 h in series [4] was 7.5 ± 1.2 µg/mL (≈ 9.28 µM).
